According to patent publication US4568690A, “1-Methyl-5-p-methylbenzoylpyrrole-2-acetamidoacetanilides with antiinflammatory, analgesic, antipyretic and anti-platelet aggregant activity” (priority 1983, dated 1986):

How the values were obtained:
carragenin-induced edema = carragenin-induced edema test (antinflammatory activity); format: in vivo, rats
Description: (§1) Preparations of the compound were administered orally and/or parenterally in a suspension in 0.59% carboxymethylcellulose in pH neutral physiological saline.
This effect was evaluated with an experimental model reproducing actue inflammation in rats: the carragenin-induced edema test was used, according to the method of C. A. Winter (G. Pharmac. Exp. Ther., 141, 369 (1963)). Table III reports the compounds tested, their concentrations, administration routes and relative percent edema inhibition.

[1] = tested on: p-phenylquinone-induced writhing; experiment: p-phenylquinone-induced writhing test (analgesic activity); format: in vivo; settings: an hour after administration
Description: as §1
The determination was made an hour after administration of the product. The inhibitory effect on abdominal contractions induced by phenyl-p-quinone was calculated as follows: [formula]
Table IV reports the doses, the administration routes and their effectiveness expressed as % protection.

[2] = tested on: hyperthermia induced by dry purified beer yeast; experiment: antipyretic activity, beer yeast-induced hyperthermia; format: in vivo, Wistar strain male albino rats
Description: as §1
This effect was evaluated by inducing hyperthermia in Wistar strain male albino rats with an average weight of 250±10 g, injecting them intraperitoneally with a 10% suspension of dry purified beer yeast (Carlo Erba) in a volume of 10 ml/Kg of body weight, according to the method of S. Wong et al. (J. Pharmac. Exp. Ther., 185 (1), 127 (1973)).

[3] = tested on: platelet aggregation (ADP-induced); experiment: in vitro anti-platelet aggregant activity (Born's method, ADP); format: cell-based, rat; settings: Rattus norvegicus, Platelet, ADP 7.08 μmol/l, read-out: Inhibition % (platelet aggregation)
Description: This activity was studied in vitro following Born's method (G. W. R. Born, Nature, 194, 937 (1962)) and inducing platelet aggregation with ADP. […] For the aggregation test, 0.2 ml of platelet rich plasma was mixed with a NaCl solution (0.9%) to which the test substance was added up to a final volume of 0.6 ml. Incubation was fixed at 3 minutes at 27° C. After aggregation was induced with ADP, the course of the aggregation was monitored continuously with an Elvi 840 Aggregometer (Elvi Logos--Milan). The antiaggregant effects were determined by the difference in the light transmission of the sample with respect to that of the ADP control. The test compound was compared with aspirin, which has known antiplatelet aggregant activity (H. J. Weiss et al., J. Clin. Inv., 47, 2169 (1968); Platelet Aggregation and Drugs, edited by L. Caprino and E. C. Rossi, page 235, Academic Press (London), 1974).
Table VI reports the inhibition of platelet aggregation with various doses of the compounds tested at a constant ADP concentration.

in vivo = settings: rat, ip
gastric mucosa = experiment: gastric tolerance (ulcerogenic activity); settings: orally, four consecutive days; for Mean number severity: severity scale 0-5
Description: This was studied by testing ulcerogenic activity in male Wistar rats weighing an average of 180 g, using groups of 10 animals each. Three doses of each substance were used, and one group of animals was treated with vehicle only, in a volume of 10 ml/g body weight. Each dose was administered orally for four consecutive days, and the rats were killed on the fifth day and autopsied. The ulcerogenic effect was evaluated on the following scale:
(1) each hemorrhage point >1 mm was evaluated as 1 lesion
(2) the hemorrhage points <1 were counted as follows:
(b) from 1 to 19 2 lesions
(c) from 1 to 29 3 lesions
(2) gastric mucosa irritation
(3) hemorrhage points <1 mm
(4) hemorrhage points from 1 to 3 mm
(5) hemorrhage points >3 mm
This scale was used to calculate the following index of gastric damage: [formula]

**Q.** Which Oedema inhibition % (carragenin-induced edema; i.p., 10 mg/kg, 3 h) does the source give for `Cc1ccc(C(=O)c2ccc(CC(=O)NCC(=O)Nc3cccc(C)c3C)n2C)cc1` [Compound 1f] here?
**A.** 37.1%

**Q.** And the Oedema inhibition % (carragenin-induced edema; i.p., 10 mg/kg, 6 h)?
**A.** 33.4%

**Q.** And the Oedema inhibition % (carragenin-induced edema; i.p., 10 mg/kg, 24 h)?
**A.** 0.0%

**Q.** What about the Oedema inhibition % (carragenin-induced edema; i.p., 50 mg/kg, 3 h) of the same compound?
**A.** 51.6%

**Q.** And the Oedema inhibition % (carragenin-induced edema; i.p., 50 mg/kg, 6 h)?
**A.** 53.9%

**Q.** What about the Oedema inhibition % (carragenin-induced edema; i.p., 50 mg/kg, 24 h) of the same compound?
**A.** 4.2%

**Q.** What about the Oedema inhibition % (carragenin-induced edema; i.p., 100 mg/kg, 3 h) of the same compound?
**A.** 72.5%

**Q.** And the Oedema inhibition % (carragenin-induced edema; i.p., 100 mg/kg, 6 h)?
**A.** 70.0%

**Q.** And the Oedema inhibition % (carragenin-induced edema; i.p., 100 mg/kg, 24 h)?
**A.** 19.1%

**Q.** What about the Oedema inhibition % (carragenin-induced edema; os, 10 mg/kg, 3 h) of the same compound?
**A.** 32.6%

**Q.** And the Oedema inhibition % (carragenin-induced edema; os, 10 mg/kg, 6 h)?
**A.** 34.1%

**Q.** What about the Oedema inhibition % (carragenin-induced edema; os, 10 mg/kg, 24 h) of the same compound?
**A.** 0.0%

**Q.** And the Oedema inhibition % (carragenin-induced edema; os, 50 mg/kg, 3 h)?
**A.** 49.1%

**Q.** What about the Oedema inhibition % (carragenin-induced edema; os, 50 mg/kg, 6 h) of the same compound?
**A.** 49.0%

**Q.** What about the Oedema inhibition % (carragenin-induced edema; os, 50 mg/kg, 24 h) of the same compound?
**A.** 3.4%

**Q.** And the Oedema inhibition % (carragenin-induced edema; os, 100 mg/kg, 3 h)?
**A.** 69.7%

**Q.** And the Oedema inhibition % (carragenin-induced edema; os, 100 mg/kg, 6 h)?
**A.** 69.0%

**Q.** And the Oedema inhibition % (carragenin-induced edema; os, 100 mg/kg, 24 h)?
**A.** 22.1%

**Q.** What about the Protection % ([1]; i.p., 5 mg/kg) of the same compound?
**A.** 15.3%

**Q.** What about the Protection % ([1]; i.p., 10 mg/kg) of the same compound?
**A.** 47.0%

**Q.** What about the Protection % ([1]; i.p., 20 mg/kg) of the same compound?
**A.** 75.0%

**Q.** What about the Protection % ([1]; os, 5 mg/kg) of the same compound?
**A.** 18.0%

**Q.** What about the Protection % ([1]; os, 10 mg/kg) of the same compound?
**A.** 42.1%

**Q.** What about the Protection % ([1]; os, 20 mg/kg) of the same compound?
**A.** 70.3%

**Q.** And the Temperature decrease % ([2]; i.p., 50 mg/kg, 1 h)?
**A.** 12.1%

**Q.** And the Temperature decrease % ([2]; i.p., 50 mg/kg, 2 h)?
**A.** 25.0%

**Q.** And the Temperature decrease % ([2]; i.p., 50 mg/kg, 3 h)?
**A.** 29.8%

**Q.** And the Temperature decrease % ([2]; i.p., 75 mg/kg, 1 h)?
**A.** 16.3%

**Q.** What about the Temperature decrease % ([2]; i.p., 75 mg/kg, 2 h) of the same compound?
**A.** 30.1%

**Q.** What about the Temperature decrease % ([2]; i.p., 75 mg/kg, 3 h) of the same compound?
**A.** 35.1%

**Q.** And the Temperature decrease % ([2]; i.p., 100 mg/kg, 1 h)?
**A.** 38.7%

**Q.** What about the Temperature decrease % ([2]; i.p., 100 mg/kg, 2 h) of the same compound?
**A.** 43.0%

**Q.** What about the Temperature decrease % ([2]; i.p., 100 mg/kg, 3 h) of the same compound?
**A.** 40.0%

**Q.** What about the Temperature decrease % ([2]; os, 50 mg/kg, 1 h) of the same compound?
**A.** 15.1%

**Q.** And the Temperature decrease % ([2]; os, 50 mg/kg, 6 h)?
**A.** 20.0%

**Q.** And the Temperature decrease % ([2]; os, 50 mg/kg, 24 h)?
**A.** 28.7%

**Q.** What about the Temperature decrease % ([2]; os, 75 mg/kg, 1 h) of the same compound?
**A.** 18.2%

**Q.** And the Temperature decrease % ([2]; os, 75 mg/kg, 6 h)?
**A.** 29.5%

**Q.** What about the Temperature decrease % ([2]; os, 75 mg/kg, 24 h) of the same compound?
**A.** 28.7%

**Q.** What about the Temperature decrease % ([2]; os, 100 mg/kg, 1 h) of the same compound?
**A.** 22.1%

**Q.** And the Temperature decrease % ([2]; os, 100 mg/kg, 6 h)?
**A.** 32.0%

**Q.** And the Temperature decrease % ([2]; os, 100 mg/kg, 24 h)?
**A.** 38.1%

**Q.** What about the inhibition at 1 µg/mL ([3]; 1 γ/ml) of the same compound?
**A.** 22%

**Q.** What about the inhibition at 5 µg/mL ([3]; 5 γ/ml) of the same compound?
**A.** 75%

**Q.** And the inhibition at 10 µg/mL ([3]; 10 γ/ml)?
**A.** 90%

**Q.** What about the LD50 (in vivo) of the same compound?
**A.** 1100 mg/kg

**Q.** And the Mean number lesions (gastric mucosa; 50 mg/kg)?
**A.** 1

**Q.** What about the Mean number severity (gastric mucosa; 50 mg/kg) of the same compound?
**A.** 1

**Q.** What about the Mean number lesions (gastric mucosa; 100 mg/kg) of the same compound?
**A.** 2

**Q.** And the Mean number severity (gastric mucosa; 100 mg/kg)?
**A.** 3

**Q.** And the Mean number lesions (gastric mucosa; 200 mg/kg)?
**A.** 3

**Q.** And the Mean number severity (gastric mucosa; 200 mg/kg)?
**A.** 3
